Counter-ions that a name gives are not always drawn.
molecular target: T1, glycine transporter-1 (GlyT-1) (Homo sapiens, UniProt P48067); assay: [14C]glycine uptake assay in JAR cells endogenously expressing GlyT-1 (scintillation proximity); type: cell-based; conditions: GlyT-1 IC50 (nM)
T1 construct: JAR cells (ATCC#HTB-144), which endogenously express GlyT-1; host or cells: JAR human choriocarcinoma cells
T1 sequence (P48067 1-706): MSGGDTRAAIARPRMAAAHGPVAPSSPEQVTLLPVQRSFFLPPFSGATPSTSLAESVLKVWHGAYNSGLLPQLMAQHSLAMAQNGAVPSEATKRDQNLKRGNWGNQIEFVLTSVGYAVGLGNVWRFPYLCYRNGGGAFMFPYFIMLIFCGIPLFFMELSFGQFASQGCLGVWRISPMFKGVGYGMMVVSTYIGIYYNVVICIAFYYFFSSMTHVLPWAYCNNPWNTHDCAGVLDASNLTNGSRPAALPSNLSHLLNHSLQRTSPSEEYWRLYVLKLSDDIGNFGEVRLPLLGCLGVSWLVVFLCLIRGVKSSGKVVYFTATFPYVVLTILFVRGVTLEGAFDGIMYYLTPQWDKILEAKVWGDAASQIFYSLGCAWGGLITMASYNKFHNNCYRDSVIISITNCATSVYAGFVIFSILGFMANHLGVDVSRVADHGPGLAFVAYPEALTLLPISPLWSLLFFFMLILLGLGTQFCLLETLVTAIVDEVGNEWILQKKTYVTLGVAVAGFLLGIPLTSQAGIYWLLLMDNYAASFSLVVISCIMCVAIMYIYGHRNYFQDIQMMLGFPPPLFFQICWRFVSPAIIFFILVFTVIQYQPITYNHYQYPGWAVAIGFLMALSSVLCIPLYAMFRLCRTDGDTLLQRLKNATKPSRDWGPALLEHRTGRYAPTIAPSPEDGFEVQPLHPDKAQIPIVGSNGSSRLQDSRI
Method in brief: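 Human choriocarcinoma JAR cells (endogenous GlyT-1) attached overnight, then pre-incubated 10 min at room temperature with compound in pH 7.4 Hepes uptake buffer containing 5 mM alanine and 0.75% DMSO. Uptake of 5 μM [14C]glycine over 3 h at 37 °C read by scintillation proximity; IC50 from four-parameter fit of nine-point curves.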

SMILES | IC50
CCCS(=O)(=O)N1CCN(C2(CNC(=O)c3c(F)cccc3F)CC3CC3C2)CC1 (centres unmarked) [compound 199, 2,6-Difluoro-N-((3-(4-(propylsulfonyl)piperazin-1-yl)bicyclo[3.1.0]hexan-3-yl)methyl)benzamide Hydrochloride] | 621 nM

same assay, conditions: JAR cells, [14C]glycine 5 μM, 3 hour incubation; read-out: GlyT-1 IC50

IC50 | SMILES
329 nM | CCS(=O)(=O)N1CCN(C2(CNC(=O)c3cc(F)c(F)cc3Cl)CCC(F)(F)CC2)CC1 [compound 214, 2-Chloro-N-((1-(4-(ethylsulfonyl)piperazin-1-yl)-4,4-difluorocyclohexyl)methyl)-4,5-difluorobenzamide Hydrochloride]
30 nM | CCCS(=O)(=O)N1CCN(C2(CNC(=O)c3ccc(F)cc3C(F)(F)F)CCC(F)(F)CC2)CC1 [compound 148, N-((4,4-Difluoro-1-(4-(propylsulfonyl)piperazin-1-yl)cyclohexyl)methyl)-4-fluoro-2-(trifluoromethyl)benzamide Hydrochloride]
1820 nM | CCCS(=O)(=O)N1CCN(C2(CNC(=O)c3ccc(Cl)c(Cl)c3)CCCC2)CC1 [compound 76, 3,4-Dichloro-N-((1-(4-(propylsulfonyl)piperazin-1-yl)cyclopentyl)methyl) benzamide Hydrochloride]
95 nM | CCS(=O)(=O)N1CCN(C2(CNC(=O)c3ccc(C(F)(F)F)cc3C(F)(F)F)CCC(F)(F)CC2)CC1 [compound 204, N-((1-(4-(Ethylsulfonyl)piperazin-1-yl)-4,4-difluorocyclohexyl)methyl)-2,4-bis(trifluoromethyl) benzamide Hydrochloride]
83 nM | CCS(=O)(=O)N1CCN(C2(CNC(=O)c3c(Cl)cc(Cl)cc3Cl)CCC(F)(F)CC2)CC1 [compound 209, 2,4,6-Trichloro-N-((1-(4-(ethylsulfonyl)piperazin-1-yl)-4,4-difluorocyclohexyl)methyl) benzamide Hydrochloride]
10 nM | Cn1cc(S(=O)(=O)N2CCN(C3(CNC(=O)c4ccc(F)cc4F)CCC(F)(F)CC3)CC2)nn1 [compound 229, N-((4,4-Difluoro-1-(4-(1-methyl-1H-1,2,3-triazol-4-ylsulfonyl)piperazin-1-yl)cyclohexyl)methyl)-2,4-difluorobenzamide Hydrochloride]
4 nM | Cc1cccc(C)c1C(=O)NCC1(N2CCN(S(=O)(=O)c3cn(C)cn3)CC2)CCC(F)(F)CC1 [compound 164, N-((4,4-Difluoro-1-(4-(1-methyl-1H-imidazol-4-ylsulfonyl)piperazin-1-yl)cyclohexyl)methyl)-2,6-dimethylbenzamide Hydrochloride]
31 nM | CCCS(=O)(=O)N1CCN(C2(CNC(=O)c3c(C)cccc3F)CCC(F)(F)CC2)CC1 [compound 147, N-((4,4-Difluoro-1-(4-(propylsulfonyl)piperazin-1-yl)cyclohexyl)methyl)-2-fluoro-6-methyl-benzamide Hydrochloride]
3780 nM | CCCS(=O)(=O)N1CCN(C2(C(C)NC(=O)c3c(F)cccc3F)CCC(F)(F)CC2)CC1 (centres unmarked) [compound 196, N-(1-(4,4-Difluoro-1-(4-(propylsulfonyl)piperazin-1-yl)cyclohexyl)ethyl)-2,6-difluorobenzamide Hydrochloride]
590 nM | CCCS(=O)(=O)N1CCN(C2(CNC(=O)c3ccc(C)c(Cl)c3)CCCCC2)CC1 [compound 31, 3-Chloro-4-methyl-N-((1-(4-(propylsulfonyl)piperazin-1-yl)cyclohexyl)methyl) benzamide Hydrochloride]
1 nM | Cc1ccc(C(=O)NCC2(N3CCN(S(=O)(=O)c4cn(C)nn4)CC3)CCC(F)(F)CC2)c(Cl)c1F [compound 242, 2-Chloro-N-((4,4-difluoro-1-(4-(1-methyl-1H-1,2,3-triazol-4-ylsulfonyl)piperazin-1-yl)cyclohexyl)methyl)-3-fluoro-4-methylbenzamide Hydrochloride]
37 nM | CCCS(=O)(=O)N1CCN(C2(CNC(=O)c3ccc(C4CC4)cc3Cl)CCC(F)(F)CC2)CC1 [compound 247, 2-Chloro-4-cyclopropyl-N-((4,4-difluoro-1-(4-(propylsulfonyl)piperazin-1-yl)cyclohexyl)methyl) benzamide Hydrochloride]
2 nM | Cc1cccc(Cl)c1C(=O)NCC1(N2CCN(S(=O)(=O)c3cn(C)cn3)CC2)CCC(F)(F)CC1 [compound 181, 2-Chloro-N-((4,4-difluoro-1-(4-(1-methyl-1H-imidazol-4-ylsulfonyl)piperazin-1-yl)cyclohexyl)methyl)-6-methylbenzamide Hydrochloride]
629 nM | CCCS(=O)(=O)N1CCN(C2(CNC(=O)c3ccccc3OC)CCCCC2)CC1 [compound 40, 2-Methoxy-N-((1-(4-(propylsulfonyl)piperazin-1-yl)cyclohexyl)methyl) benzamide Hydrochloride]
69 nM | CCCS(=O)(=O)N1CCN(C2(CNC(=O)c3ccc(Cl)cc3C)CCC(F)(F)CC2)CC1 [compound 153, 4-Chloro-N-((4,4-difluoro-1-(4-(propylsulfonyl)piperazin-1-yl)cyclohexyl)methyl)-2-methylbenzamide Hydrochloride]
209 nM | CCS(=O)(=O)N1CCN(C2(CNC(=O)c3cc(F)c(Cl)cc3Cl)CCC(F)(F)CC2)CC1 [compound 212, 2,4-Dichloro-N-((1-(4-(ethylsulfonyl)piperazin-1-yl)-4,4-difluorocyclohexyl)methyl)-5-fluorobenzamide Hydrochloride]
68 nM | CC(O)CS(=O)(=O)N1CCN(C2(CNC(=O)c3ccc(C(F)(F)F)cc3Cl)CCC(F)(F)CC2)CC1 (single isomer, unassigned; enantiomer b) [compound 279, (Enantiomer B)-2-Chloro-N-((4,4-difluoro-1-(4-(2-hydroxypropylsulfonyl)piperazin-1-yl)cyclohexyl)methyl)-4-(trifluoromethyl) benzamide Hydrochloride]
25 nM | Cc1ccccc1C(=O)NCC1(N2CCN(S(=O)(=O)c3cn(C)cn3)CC2)CCC(F)(F)CC1 [compound 179, N-((4,4-difluoro-1-(4-(1-methyl-1H-imidazol-4-ylsulfonyl)piperazin-1-yl)cyclohexyl)methyl)-2-methylbenzamide Hydrochloride]
37 nM | CCCS(=O)(=O)N1CCN(C2(CNC(=O)c3ccc(Cl)cc3OC(F)F)CCC(F)(F)CC2)CC1 [compound 249, 4-Chloro-N-((4,4-difluoro-1-(4-(propylsulfonyl)piperazin-1-yl)cyclohexyl)methyl)-2-(difluoromethoxy) benzamide Hydrochloride]
1 nM | Cn1cnc(S(=O)(=O)N2CCN(C3(CNC(=O)c4c(F)cccc4OC(F)F)CCC(F)(F)CC3)CC2)c1 [compound 188, N-((4,4-Difluoro-1-(4-(1-methyl-1H-imidazol-4-ylsulfonyl)piperazin-1-yl)cyclohexyl)methyl)-2-(difluoromethoxy)-6-fluorobenzamide Hydrochloride]
5 nM | Cn1cnc(S(=O)(=O)N2CCN(C3(CNC(=O)c4ccccc4OC(F)F)CCC(F)(F)CC3)CC2)c1 [compound 183, N-((4,4-Difluoro-1-(4-(1-methyl-1H-imidazol-4-ylsulfonyl)piperazin-1-yl)cyclohexyl)methyl)-2-(difluoromethoxy) benzamide Hydrochloride]
3 nM | Cn1cnc(S(=O)(=O)N2CCN(C3(CNC(=O)c4c(F)cccc4C(F)(F)F)CCC(F)(F)CC3)CC2)c1 [compound 172, N-((4,4-Difluoro-1-(4-(1-methyl-1H-imidazol-4-ylsulfonyl)piperazin-1-yl)cyclohexyl)methyl)-2-fluoro-6-(trifluoromethyl)benzamide Hydrochloride]
83 nM | CCS(=O)(=O)N1CCN(C2(CNC(=O)c3c(Cl)cc(C(F)(F)F)cc3C(F)(F)F)CCC(F)(F)CC2)CC1 [compound 206, 2-Chloro-N-((1-(4-(ethylsulfonyl)piperazin-1-yl)-4,4-difluorocyclohexyl)methyl)-4,6-bis(trifluoromethyl) benzamide Hydrochloride]
162 nM | CCCS(=O)(=O)N1CCN(C2(CNC(=O)c3c(F)cccc3F)CCC3(CC3)CC2)CC1 [compound 198, 2,6-Difluoro-N-((6-(4-(propylsulfonyl)piperazin-1-yl)spiro[2.5]octan-6-yl)methyl)benzamide Hydrochloride]
5 nM | Cn1cnc(S(=O)(=O)N2CCN(C3(CNC(=O)c4ccc(Cl)cc4Cl)CCC(F)(F)CC3)CC2)c1 [compound 178, 2,4-Dichloro-N-((4,4-difluoro-1-(4-(1-methyl-1H-imidazol-4-ylsulfonyl)piperazin-1-yl)cyclohexyl)methyl) benzamide Hydrochloride]

Source: US9045445B2, “Glycine transporter-1 inhibitors, methods of making them, and uses thereof” (Albany Molecular Research, Inc., priority 2010, dated 2015)
